Test results reported in patent publication US20260258368A1, “METABOLIC SELECTION FOR GLYCOGEN-STORING CELLS IN VITRO” (The Board of Trustees of the Leland Stanford Junior …, priority 2023, published 2026).

Tests used:
Assay in all cases: Poly(I:C) treatment, interferon-stimulated gene expression (qPCR, RNA-seq)
Details in all cases: 50 μg/mL poly(I:C), 1 day
HepG2 liver cancer cells = format: cell-based, human
Excerpt: (§1) RNA extraction and bulk-population RNA-seq. Cells were lysed using Zymo RNA lysis buffer and total RNA was extracted from cells using the Zymo Quick RNA kit per the manufacturer's instructions. High-quality RNA with RNA integrity number (RIN)>7 was used for library construction. For each cell-type, we included 2-3 technical replicates, generally defined as different wells of the same cell-type generated in the same differentiation experiment. In one experiment, 46 RNA-seq libraries were multiplexed and then sequenced on 2 lanes of the Illumina NovaSeq 6000 S4 sequencer by Novogene to generate 150-bp paired-end reads. In a second experiment, 36 RNA-seq libraries were multiplexed and then sequenced on 1 lane of the NovaS4 sequencer by Novogene to generate 150-bp paired-end reads.
(§2) Poly(I:C) treatment. HepG2 cells, HuH7 cells, metabolically-selected H1 hPSC-and H7 hPSC-derived hepatocytes, and primary human hepatocytes (Lonza and Gibco) were thawed in a 37° C. water bath for 3 minutes. After thawing, HepG2, HuH7, and hPSC-derived hepatocytes were quenched in warm DMEM/F12 to dilute the cryopreservation solution. After thawing, primary human hepatocytes, obtained from either Lonza or Gibco, were respectively quenched in MCHT50 and CHRM to dilute the cryopreservation solution. Thawed cells were centrifuged at 1500 rpm for 5 mins and the supernatant was discarded, leaving the cell pellets. The cell pellets were resuspended in the aforementioned hepatocyte maintenance media (Lonza hepatocyte culture medium supplemented with 10 μM Dexamethasone, 10 μM Forskolin, 2 μM RO4929097, 200 μg/ml AA2P, 10 μg/ml Insulin, and 1 μM Thiazovivin [DFRAIT]). For each cell-type, ~400,000 cells were plated per well of 24-well plate that had been coated with collagen 1 (Corning Biocoat). For hPSC-derived hepatocytes, the collagen 1-coated wells were briefly treated with Geltrex prior to plating cells. The media was replenished every day for 2 days and on the third day, hepatocyte maintenance media+ DFRAIT+50 μg/ml poly(I:C) was added for 24 hours. Cells were then lysed with RNA lysis buffer (Zymo) and processed with an RNA extraction kit (Zymo) to extract RNA for qPCR and RNA-seq.

HuH7 liver cancer cells = format: cell-based, human
Excerpt: as §1, §2

[1] = tested on: hPSC-derived hepatocytes (H1 and H7 hPSC lines); format: cell-based, human
Excerpt: as §1, §2

[2] = tested on: primary adult human hepatocytes (Lonza, Gibco); format: cell-based
Excerpt: as §1
Poly(I:C) treatment. HepG2 cells, HuH7 cells, metabolically-selected H1 hPSC-and H7 hPSC-derived hepatocytes, and primary human hepatocytes (Lonza and Gibco) were thawed in a 37° C. water bath for 3 minutes. After thawing, HepG2, HuH7, and hPSC-derived hepatocytes were quenched in warm DMEM/F12 to dilute the cryopreservation solution. After thawing, primary human hepatocytes, obtained from either Lonza or Gibco, were respectively quenched in MCHT50 and CHRM to dilute the cryopreservation solution. Thawed cells were centrifuged at 1500 rpm for 5 mins and the supernatant was discarded, leaving the cell pellets. […]

## poly(I:C)
HepG2 liver cancer cells
  ISG and inflammatory cytokine expression change (RNA-seq): minimal changes
  upregulation of interferon-stimulated genes (qPCR): largely failed to upregulate
HuH7 liver cancer cells
  ISG and inflammatory cytokine expression change (RNA-seq): minimal changes
  upregulation of interferon-stimulated genes (qPCR): largely failed to upregulate
[1]
  ISG and inflammatory cytokine expression change (RNA-seq): significant ISG and inflammatory cytokine upregulation
[1]; H1- and H7-derived hepatocytes
  induction of interferon-stimulated genes MX1, VIPERIN, IFIT1, IFIT2, IFIT3, OAS1, OASL, ISG15 (qPCR): strongly induced
[2]
  ISG and inflammatory cytokine expression change (RNA-seq): significant ISG and inflammatory cytokine upregulation
[2]; two hepatocyte sources
  upregulation of interferon-stimulated genes (qPCR): upregulated ISGs
